Among the data in US12544375B2, “Small molecule therapeutic for parkinson's disease paired with a biomarker of therapeutic activity” (The Board of Trustees of the Leland Stanford Junior …, priority 2019, dated 2026) are delayed mitophagy phenotype values, retold here.

The assay concerns PD fibroblasts. As to the kind of experiment: Mitophagy at 14 hrs after CCCP in PD fibroblasts (Western blotting and immunocytochemistry). The class given is cell-based, human. Conditions: 14 hrs after CCCP treatment. As for the experimental part: FIG. 8. Related to FIG. 2-4. Miro1 Reducer in Human Cell and Fly Models. (A) Fibroblasts from Healthy-1 and PD-2 were treated, lysed, and blotted as indicated. Band intensities are normalized to those of GAPDH from the same blots and compared to “Healthy-1, no treatment”. n=4 independent experiments. (B) Fibroblasts from PD-2 were treated and immunostained as indicated. The intensity was quantified for each cell across 264-320 cells from 3 independent experiments, compared to “no treatment”. (C) Fibroblasts were treated, immunoprecipitated (IPed) with anti-Miro1, and blotted as indicated. Similar results were observed twice. (D) Similar as in (C), fibroblasts were treated as indicated, and IPed with anti-Miro1. The GTPase activity of the IPed Miro1 protein was measured as described in Method. […] The MitoSox intensity was quantified for each cell across 106-161 cells from 3 coverslips. […] The TMRM intensity was measured for each cell across 48-60 cells from 3 independent experiments, and expressed as a fraction of the mean of “Healthy-1, no treatment”. […] The movement (the intensity of non-yellow) was quantified for each cell as described in (Tsai et al., 2014) across 22-31 cells from 3 transfections. […] (1) Left: The percentage of TH-positive iPSC-derived neurons out of total cells (Dapi-positive) is calculated after immunocytochemistry under 20× as described in FIG. 3. […]
Background: A western blot detects proteins with antibodies after separation by electrophoresis.

Structures are written as SMILES.

As to `O=C(Nc1ccc(Nc2cc(-n3ccnc3)ncn2)cc1)Nc1cccc(F)c1` [Miro1 Reducer], the delayed mitophagy phenotype entry is “rescued the delayed mitophagy phenotype”.
